According to paper PMC12587552, “A nitrogen-containing diphyllin derivative C156-P1 exhibited broad-spectrum antiviral activity against Flaviviridae viruses by preventing endosomal acidification” (Antimicrobial Agents and Chemotherapy, 2025):
Read-outs that look alike come from different tables or passages of the source.

Columns and labels:
DENV-2 [1] = test: DENV-2 infection in AG129 mice; format: in vivo; settings: 0.2 mg/kg i.p.
DENV-2 [2] = test: Colocalization of DENV E protein and Rab7A, confocal microscopy; format: cell-based, DENV-2 strain 16681; settings: A549 cells, DENV-2 MOI = 20, 50 nM, 12 h
HUVEC cells = settings: human
DENV-1 = test: microbe, parasite or virus in culture; format: cell-based, DENV-1 clone D19044_7M; settings: Dengue virus, read-out: EC50 against DENV-1
Ad5-eGFP = format: cell-based, adenovirus type 5
ZIKV = test: microbe, parasite or virus in culture; format: cell-based, ZIKV strain SZ01; settings: Zika virus, read-out: EC50 against ZIKV
[3] = tested on: endosomal acidification in A549 cells; test: Endosomal acidification, LysoSensor DND-189 flow cytometry; format: cell-based, human
VSV-eGFP = test: microbe, parasite or virus in culture; format: cell-based; settings: Vesicular stomatitis virus, A549, 24 h, read-out: EC50 against VSV-eGFP
HSV-1-eGFP = test: microbe, parasite or virus in culture; format: cell-based, herpes simplex virus type 1; settings: Human alphaherpesvirus 1, A549, 48 h, read-out: EC50 against HSV-1-eGFP
DENV-4 = DENV-4 infection, immunofluorescence assay; format: cell-based; settings: Dengue virus, read-out: EC50 against DENV-4

SMILES: COc1cc2c(OCC#N)c3c(c(-c4ccc5c(c4)OCO5)c2cc1OC)C(=O)OC3 [Compound C156-P1]
- Body weight of DENV-2-infected mice (DENV-2 [1]): mitigated the decline in body weight
- DENV-2 RNA load in blood (DENV-2 [1]; days 3, 5, and 7 post-infection, RT-qPCR): markedly decreased DENV-2 in the blood
- Survival rate (DENV-2 [1]; DENV-2 1 × 10^6 PFU i.p., until day 15): 60%
- Colocalization between DENV E protein and Rab7A (DENV-2 [2]): significantly enhanced the colocalization between DENV E protein and Rab7A
- Concentration tolerable for cytotoxicity (HUVEC cells): < 62.5 nM
- EC50 (DENV-1; DENV1, A549, 48 h): 8.38 nM
- EC50 (DENV-1; DENV1, Vero, 48 h): 5.76 nM
- Mean fluorescence intensity (MFI) of Ad5-eGFP within the cells (Ad5-eGFP): slightly increased
- Number of Ad5-eGFP-positive cells versus DMSO (Ad5-eGFP): no significant difference
- EC50 (ZIKV; A549, 48 h): 1.01 nM
- EC50 (ZIKV; Vero, 48 h): 0.76 nM
- Endosomal acidification (FITC intensity of LysoSensor DND-189) [3]: significantly decreased the MFI of FITC in a dose-dependent manner
- EC50 (VSV-eGFP): 9.27 nM
- EC50 (HSV-1-eGFP): 6.21 nM
- EC50 (DENV-4; DENV4, A549, 48 h): 5.31 nM
- EC50 (DENV-4; DENV4, Vero, 48 h): 5.53 nM
